The values below come from patent publication US10172868B2, “Substituted quinazolines for inhibiting kinase activity” (NeuPharma, Inc., priority 2013, dated 2019).

One assay has as its target EGFR (ErbB1) (Homo sapiens (Human), UniProt P00533). In words: Z'-LYTE kinase inhibition assay, EGFR. The settings on record: for inhibition at 0.041 µM: read-out: % inhibition against EGFR (Compound at 0.041 μM); for IC50: read-out: IC50 against EGFR; for inhibition at 1 µM: read-out: % inhibition against EGFR (Compound at 1 μM). The assay is classed as biochemical. In outline: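 Z'-LYTE FRET assay run with 1.1-5.25 ng EGFR and 2 μM peptide substrate in 50 mM HEPES pH 7.5, 10 mM MgCl2, 2 mM MnCl2, 1 mM EGTA, 1 mM DTT, 0.01% BRIJ-35, 1% DMSO. Kinase reaction 60 min at room temperature, then 60 min development; IC50 from 10-point 3-fold titrations.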

For another assay, the target named is EGFR (ErbB1) T790M L858R (Homo sapiens (Human), UniProt P00533, L858R/T790M). In words: Z'-LYTE kinase inhibition assay, EGFR L858R/T790M. The settings on record: for IC50: read-out: IC50 against EGFR L858R/T790M; for inhibition at 1 µM: read-out: % inhibition against EGFR L858R/T790M (Compound at 1 μM); for inhibition at 0.0137 µM: read-out: % inhibition against EGFR L858R/T790M (Compound at 0.0137 μM). The assay is classed as biochemical. In a few lines: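 Z'-LYTE FRET peptide assay at 1% DMSO, 10-point 3-fold titrations; kinase/peptide mix in 50 mM HEPES pH 6.5, 0.01% BRIJ-35, 10 mM MgCl2, 1 mM EGTA, 0.02% NaN3. Kinase reaction ran 60 min at room temperature, followed by 60 min development and a fluorescence read. IC50 derived from the concentration series.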
EGFR (ErbB1) T790M L858R, sequence (P00533 25-1210 T790M/L858R): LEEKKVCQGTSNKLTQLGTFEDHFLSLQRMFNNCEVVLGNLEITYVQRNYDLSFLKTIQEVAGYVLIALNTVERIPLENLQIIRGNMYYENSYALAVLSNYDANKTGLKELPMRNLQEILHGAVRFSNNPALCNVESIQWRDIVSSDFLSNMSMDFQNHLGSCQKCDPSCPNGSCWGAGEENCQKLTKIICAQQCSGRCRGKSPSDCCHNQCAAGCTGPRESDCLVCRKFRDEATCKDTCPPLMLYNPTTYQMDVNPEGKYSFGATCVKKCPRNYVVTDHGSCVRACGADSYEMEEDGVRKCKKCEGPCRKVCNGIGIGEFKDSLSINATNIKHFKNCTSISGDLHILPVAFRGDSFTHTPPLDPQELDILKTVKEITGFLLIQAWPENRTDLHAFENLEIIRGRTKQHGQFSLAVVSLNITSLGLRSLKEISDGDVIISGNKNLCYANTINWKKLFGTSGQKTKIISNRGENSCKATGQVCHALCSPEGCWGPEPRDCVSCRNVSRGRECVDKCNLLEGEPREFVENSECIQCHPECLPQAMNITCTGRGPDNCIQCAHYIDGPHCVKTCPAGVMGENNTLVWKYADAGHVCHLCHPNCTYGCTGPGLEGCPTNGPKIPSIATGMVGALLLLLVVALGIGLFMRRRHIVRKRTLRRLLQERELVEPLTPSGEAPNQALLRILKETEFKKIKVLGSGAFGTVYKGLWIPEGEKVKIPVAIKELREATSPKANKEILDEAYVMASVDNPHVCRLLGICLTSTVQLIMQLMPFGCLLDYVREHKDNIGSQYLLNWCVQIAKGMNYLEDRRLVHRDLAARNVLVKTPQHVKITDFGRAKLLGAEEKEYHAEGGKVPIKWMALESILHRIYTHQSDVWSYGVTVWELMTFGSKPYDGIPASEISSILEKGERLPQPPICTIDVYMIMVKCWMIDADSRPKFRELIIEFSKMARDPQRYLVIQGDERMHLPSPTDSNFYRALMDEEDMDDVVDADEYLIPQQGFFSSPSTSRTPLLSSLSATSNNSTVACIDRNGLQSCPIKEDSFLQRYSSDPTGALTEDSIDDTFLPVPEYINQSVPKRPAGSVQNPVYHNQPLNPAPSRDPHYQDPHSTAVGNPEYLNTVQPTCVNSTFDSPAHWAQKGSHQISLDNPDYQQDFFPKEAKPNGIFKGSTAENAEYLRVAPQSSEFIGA

The next assay relates to HCC827 cells. In words: cells. The settings on record: Homo sapiens, HCC827, 72 h, read-out: IC50 in HCC827 cells.
A further assay relates to H3255 cells. In words: Inhibition of cancer cell growth, MTT assay, H3255. To be noted: Homo sapiens, NCI-H3255, 72 h, read-out: IC50 in H3255 cells. A general note: Tetrazolium assays rely on reduction of a dye to a coloured formazan, in cell work by metabolically active cells.
The next assay has as its system H1299 cells. In words: Inhibition of cancer cell growth, MTT assay, H1299. The settings on record: Homo sapiens, NCI-H1299, 72 h, read-out: IC50 in H1299 cells.
The test system of a further assay is H1975 cells. In words: Inhibition of cancer cell growth, MTT assay, H1975. The settings on record: Homo sapiens, NCI-H1975, 72 h, read-out: IC50 in H1975 cells.

EGFR (ErbB1), sequence (P00533 25-1210): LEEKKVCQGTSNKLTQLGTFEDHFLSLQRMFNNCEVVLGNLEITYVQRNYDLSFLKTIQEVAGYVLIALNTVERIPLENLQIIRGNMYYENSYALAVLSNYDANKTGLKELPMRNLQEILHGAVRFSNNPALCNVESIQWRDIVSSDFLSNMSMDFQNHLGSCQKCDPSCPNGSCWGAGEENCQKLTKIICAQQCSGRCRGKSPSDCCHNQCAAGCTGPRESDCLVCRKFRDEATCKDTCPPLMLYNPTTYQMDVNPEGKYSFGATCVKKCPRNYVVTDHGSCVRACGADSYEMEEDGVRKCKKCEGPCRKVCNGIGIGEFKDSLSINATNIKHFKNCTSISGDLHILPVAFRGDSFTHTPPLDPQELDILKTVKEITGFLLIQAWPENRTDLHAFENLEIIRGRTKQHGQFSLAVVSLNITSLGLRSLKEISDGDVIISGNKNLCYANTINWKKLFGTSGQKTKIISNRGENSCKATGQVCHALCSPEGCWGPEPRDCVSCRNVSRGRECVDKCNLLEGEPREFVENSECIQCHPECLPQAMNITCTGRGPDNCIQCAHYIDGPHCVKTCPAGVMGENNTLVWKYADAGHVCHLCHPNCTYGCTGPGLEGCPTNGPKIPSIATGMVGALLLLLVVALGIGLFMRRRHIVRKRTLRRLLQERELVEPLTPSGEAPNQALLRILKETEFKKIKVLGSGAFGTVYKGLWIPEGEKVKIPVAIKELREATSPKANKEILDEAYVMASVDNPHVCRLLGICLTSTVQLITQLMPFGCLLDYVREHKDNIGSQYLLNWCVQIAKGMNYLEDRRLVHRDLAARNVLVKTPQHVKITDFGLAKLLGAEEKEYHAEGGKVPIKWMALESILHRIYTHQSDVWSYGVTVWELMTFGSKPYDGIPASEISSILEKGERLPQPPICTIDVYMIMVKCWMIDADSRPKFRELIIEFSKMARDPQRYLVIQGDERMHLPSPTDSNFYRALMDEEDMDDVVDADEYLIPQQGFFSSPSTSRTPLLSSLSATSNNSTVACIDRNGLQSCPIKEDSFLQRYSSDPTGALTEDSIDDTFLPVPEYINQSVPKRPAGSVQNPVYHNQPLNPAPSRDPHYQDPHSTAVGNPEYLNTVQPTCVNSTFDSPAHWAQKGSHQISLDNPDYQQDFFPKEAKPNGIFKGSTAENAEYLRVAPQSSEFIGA
Procedure for H1299 cells: (§1) Inhibition of cell growth by compounds was measured using MTT assay (Mosmann, T., Journal of Immunological Methods, 1983, 65, 55-63). Tumor cell lines were purchased from ATCC (American Type Culture Collection, Manassas, Va.). All cell lines were maintained in RPMI 1640 (Hyclone) supplemented with 10% fetal bovine serum (FBS, Hyclone), glutamine (2 mM, Hyclone), and antibiotics (penicillin 100 U/mL and streptomycin 50 μg/mL) at 37° C. in a humidified atmosphere of 5% CO2 in air. Taxol (as a positive control. Sigma) and compounds were dissolved in DMSO (Sigma), and the final concentration of DMSO in the medium was 1%. Tumor cells were plated in 96-well plates at densities of about 4000 cells/well of a 96-well plate and allowed to adhere/grow for 24 h. They were then treated with various concentrations of drug for 72 h, 3-(4,5-Dimethylthiazol-2-yl)-2,5-diphenyltetrazolium bromide (MTT, Sigma) was used to determine the number of viable cells at the time of compound addition and the number of cells remaining after 72 h compound exposure. The number of cells remaining after 72 h was compared to the number of viable cells at the time of compound addition by measuring the absorbance at 570 nm, allowing for the calculation of growth inhibition.
(§2) All concentrations of compounds were tested in triplicate and controls were averaged over 4 wells. IC50 was calculated by plotting the concentration of compound vs the percentage of inhibition in treated wells using GraphPad Prism 5.
Procedure for H1975 cells: as §1, §2
Procedure for H3255 cells: as §1, §2

On to `C=CC(=O)Nc1cccc(-c2cccc3cnc(Nc4ccc(N5CCN(CCO)CC5)cc4)nc23)c1` [Example C059, N-(3-(2-((4-(4-(2-hydroxyethyl)piperazin-1-yl)phenyl)amino)quinazolin-8-yl)phenyl)acrylamide], for which the inhibition at 0.041 µM at EGFR (ErbB1) is more than 50%. For the same molecule, the IC50 was less than 100 nM at EGFR (ErbB1); less than 100 nM at EGFR (ErbB1) T790M L858R; less than 100 nM with HCC827 cells; 100 to 500 nM in the assay with H3255 cells; more than 500 nM in the assay with H1299 cells; less than 100 nM in the assay with H1975 cells.

Consider `Fc1cccc(-c2cccc3cnc(Nc4ccc(N5CCOCC5)cc4)nc23)c1` [Example C009, 8-(3-fluorophenyl)-N-(4-morpholinophenyl)quinazolin-2-amine], for which the inhibition at 1 µM on EGFR (ErbB1) and on EGFR (ErbB1) T790M L858R was less than 50% in each case. For the same molecule, the IC50 with HCC827 cells and in the assay with H1975 cells was more than 500 nM in each case.

As to `C=CC(=O)Nc1cccc(-c2cccc3cnc(Nc4ccc(N5CCOCC5)cc4)nc23)c1` [Example C001, N-(3-(2-((4-morpholinophenyl)amino)quinazolin-8-yl)phenyl)acrylamide], the inhibition at 1 µM at EGFR (ErbB1) and on EGFR (ErbB1) T790M L858R was more than 50% throughout. For the same molecule, on EGFR (ErbB1) T790M L858R, the inhibition at 0.0137 µM is less than 50%. Moreover, the IC50 is less than 100 nM at EGFR (ErbB1) T790M L858R; less than 100 nM in the assay with HCC827 cells; more than 500 nM in the assay with H3255 cells; more than 500 nM in the assay with H1299 cells; 100 to 500 nM in the assay on H1975 cells.

Regarding `C=CC(=O)Nc1cccc(-c2cccc3cnc(Nc4ccc(N5CCN(C)CC5)nc4)nc23)c1` [Example C041, N-(3-(2-((6-(4-methylpiperazin-1-yl)pyridin-3-yl)amino)quinazolin-8-yl)phenyl)acrylamide], the inhibition at 0.041 µM on EGFR (ErbB1) was more than 50%. Also, the IC50 on EGFR (ErbB1) was less than 100 nM; at EGFR (ErbB1) T790M L858R, less than 100 nM; in the assay on HCC827 cells, less than 100 nM; in the assay with H3255 cells, more than 500 nM; in the assay with H1299 cells it was more than 500 nM; in the assay on H1975 cells, 100 to 500 nM.

`Clc1ccccc1-c1cccc2cnc(Nc3ccc(N4CCOCC4)cc3)nc12` [Example C011, 8-(2-chlorophenyl)-N-(4-morpholinophenyl)quinazolin-2-amine]: the inhibition at 1 µM at EGFR (ErbB1) and at EGFR (ErbB1) T790M L858R was less than 50% throughout. The IC50 in the assay with HCC827 cells and in the assay with H1975 cells was more than 500 nM each time.

As to `C=CC(=O)Nc1cccc(-c2cccc3cnc(Nc4ccc(N5CCN(C)CC5)cc4)nc23)c1` [Example C021, N-(3-(2-((4-(4-methylpiperazin-1-yl)phenyl)amino)quinazolin-8-yl)phenyl)acrylamide], the inhibition at 0.041 µM on EGFR (ErbB1) is more than 50%. The IC50 at EGFR (ErbB1) is less than 100 nM; at EGFR (ErbB1) T790M L858R, less than 100 nM; with HCC827 cells, less than 100 nM; with H3255 cells, 100 to 500 nM; in the assay on H1299 cells it was 100 to 500 nM; in the assay on H1975 cells it was less than 100 nM.

For the molecule `c1ccc(-c2cccc3cnc(Nc4ccc(N5CCOCC5)cc4)nc23)cc1` [Example C004, N-(4-morpholinophenyl)-8-phenylquinazolin-2-amine], the inhibition at 1 µM is less than 50% on EGFR (ErbB1) and more than 50% on EGFR (ErbB1) T790M L858R. The IC50 in the assay on HCC827 cells and in the assay with H1975 cells was more than 500 nM in each case.

Turning to `C=CC(=O)Nc1cccc(-c2nccc3c(N)nc(Nc4ccc(N5CCOCC5)cc4)nc23)c1` [Example C005, N-(3-(4-amino-2-((4-morpholinophenyl)amino)pyrido[3,4-d]pyrimidin-8-yl)phenyl)acrylamide], the inhibition at 1 µM on EGFR (ErbB1) was more than 50%; at EGFR (ErbB1) T790M L858R, less than 50%. The IC50 is 100 to 500 nM with HCC827 cells and more than 500 nM in the assay on H1975 cells.

Consider `C=CC(=O)Nc1cccc(-c2cccc3cnc(Nc4ccc(N5CCN(C)CC5)cc4OC)nc23)c1` [Example C003, N-(3-(2-((2-methoxy-4-(4-methylpiperazin-1-yl)phenyl)amino)quinazolin-8-yl)phenyl)acrylamide], for which the inhibition at 1 µM on EGFR (ErbB1) and on EGFR (ErbB1) T790M L858R was more than 50% each time. The inhibition at 0.0137 µM at EGFR (ErbB1) T790M L858R is more than 50%. Also, the IC50 on EGFR (ErbB1) T790M L858R was less than 100 nM; in the assay on HCC827 cells, less than 100 nM; with H3255 cells, more than 500 nM; in the assay with H1299 cells, more than 500 nM; in the assay on H1975 cells, 100 to 500 nM.

With `Fc1ccccc1-c1cccc2cnc(Nc3ccc(N4CCOCC4)cc3)nc12` [Example C010, 8-(2-fluorophenyl)-N-(4-morpholinophenyl)quinazolin-2-amine], the inhibition at 1 µM at EGFR (ErbB1) and on EGFR (ErbB1) T790M L858R was less than 50% each time. The IC50 in the assay on HCC827 cells and with H1975 cells was more than 500 nM each time.

As to `Clc1cccc(-c2cccc3cnc(Nc4ccc(N5CCOCC5)cc4)nc23)c1` [Example C008, 8-(3-chlorophenyl)-N-(4-morpholinophenyl)quinazolin-2-amine], the inhibition at 1 µM on EGFR (ErbB1) and on EGFR (ErbB1) T790M L858R was less than 50% in each case. In addition, the IC50 in the assay with HCC827 cells and with H1975 cells was more than 500 nM in each case.

For `C=CC(=O)Nc1cccc(-c2nccc3cnc(Nc4ccc(N5CCOCC5)cc4)nc23)c1` [Example C012, N-(3-(2-((4-morpholinophenyl)amino)pyrido[3,4-d]pyrimidin-8-yl)phenyl)acrylamide], the inhibition at 1 µM on EGFR (ErbB1) was less than 50%; at EGFR (ErbB1) T790M L858R, more than 50%. Besides, the IC50 with HCC827 cells is less than 100 nM; in the assay on H1975 cells, 100 to 500 nM.

Consider `C=CC(=O)Nc1cccc(-c2cccc3cnc(Nc4ccc(N5CCN(CCF)CC5)cc4)nc23)c1` [Example C053, N-(3-(2-((4-(4-(2-fluoroethyl)piperazin-1-yl)phenyl)amino)quinazolin-8-yl)phenyl)acrylamide], for which, at EGFR (ErbB1), the inhibition at 0.041 µM is less than 50% and the inhibition at 1 µM was more than 50%. Further, at EGFR (ErbB1) T790M L858R, the inhibition at 0.0137 µM was more than 50% and the inhibition at 1 µM is more than 50%. Moreover, in the assay with H1975 cells, the IC50 is less than 100 nM.

In the case of `C=CC(=O)Nc1cccc(-c2cccc3cnc(Nc4ccc(N5CCOCC5)cc4OC)nc23)c1` [Example C002, N-(3-(2-((2-methoxy-4-morpholinophenyl)amino)quinazolin-8-yl)phenyl)acrylamide], the inhibition at 1 µM was less than 50% at EGFR (ErbB1) and more than 50% at EGFR (ErbB1) T790M L858R. Also, the results for the IC50 in the assay with HCC827 cells and with H3255 cells were 100 to 500 nM and more than 500 nM, respectively.

Take `Fc1ccc(Cl)cc1-c1cccc2cnc(Nc3ccc(N4CCOCC4)cc3)nc12` [Example C007, 8-(5-chloro-2-fluorophenyl)-N-(4-morpholinophenyl)quinazolin-2-amine]: the inhibition at 1 µM at EGFR (ErbB1) and at EGFR (ErbB1) T790M L858R was less than 50% each time. Besides, the IC50 in the assay on HCC827 cells and with H1975 cells was more than 500 nM in each case.

In the case of `C=CC(=O)Nc1cccc(-c2cccc3cnc(Nc4ccc(N5CCN(C)CC5)cc4F)nc23)c1` [Example C044, N-(3-(2-((2-fluoro-4-(4-methylpiperazin-1-yl)phenyl)amino)quinazolin-8-yl)phenyl)acrylamide], at EGFR (ErbB1), the inhibition at 0.041 µM was more than 50%. Further, the IC50 at EGFR (ErbB1) is less than 100 nM; at EGFR (ErbB1) T790M L858R, less than 100 nM; in the assay on H3255 cells it was more than 500 nM; with H1299 cells, more than 500 nM; in the assay with H1975 cells, less than 100 nM. In addition, on EGFR (ErbB1) T790M L858R, the inhibition at 0.0137 µM was more than 50%.
